What was measured:
Format in all cases: cell-based
MM485 melanoma cell line = experiment: MTT proliferation assay, MM485; settings: 50 uM
Protocol: (§1) FIG. 3A-3D: Benzamil reduce invasion and proliferation of melanoma cell lines expressing increased Rac1GTP. […] Stimulation with Benzamil at 50 uM was not toxic, but reduced proliferation in COLO829,MM485,CHL1 melanoma cell lines similar to V12 Rac1 mutant primary melanocytes FIG. 3D.
(§2) Benzamil reduce invasion and proliferation of melanoma cell lines expressing increased Rac1GTP. […] Stimulation with Benzamil at 50 μM was not toxic, but reduced proliferation in COLO829,MM485,CHL1 melanoma cell lines similar to V12 Rac1 mutant primary melanocytes.
(§3) MTT proliferation assay. 25000 melanocytes were plated in each well in a 96 well plate, and incubated with 100 ul DMEM with 10% FBS 1% AA for 24 hours. 10 ul MTT reagent (MTT proliferation assay, ATCC, Manassas, US) was added for 4 hours, 100 ul detergent was added to each well for 2 hours., and absorbance read at 570 nm (Spectramax M5, Molecular Devices, US), normalized to cell-free control absorbance.

[1] = system: COLO829 melanoma cell line; experiment: MTT proliferation assay, COLO829; settings: 50 uM
Protocol: as §1, §2, §3

[2] = system: V12 Rac1 mutant primary foreskin-derived melanocytes; experiment: MTT proliferation assay, V12 Rac1 melanocytes
Protocol: FIG. 1A-1C: Benzamil inhibits V12 Rac1 driven melanocyte invasion and proliferation in vitro. […] Invasion was abolished in conditions treated with 50 uM Benzamil (FIG. 1A, FIG. 1B).
Invasion was abolished in conditions treated with 50 μM Benzamil.
as §3

CHL1 melanoma cell line = experiment: MTT proliferation assay, CHL1; settings: 50 uM
Protocol: as §1, §2, §3

Q: What does the source list for `NC(=NCc1ccccc1)NC(=O)c1nc(Cl)c(N)nc1N` [Benzamil, benzyl amiloride]?
A: toxicity (MM485 melanoma cell line): not toxic; toxicity [1]: not toxic; Dosage tolerated in vitro (assessed by detectable proliferation) [2]: up to 100 uM; toxicity (CHL1 melanoma cell line): not toxic
